What was measured:
[1] = test system: ALOMY; test: greenhouse post-emergence herbicidal test, ALOMY; format: in vivo, Alopecurus myosuroides; conditions: post-emergence method, application rate 0.25 kg/ha, scale from 0 to 100
From the text: (§1) The seeds of the test plants were sown separately for each species. For the post-emergence treatment, the test plants were first grown to a height of 3 to 15 cm, depending on the plant habit, and only then treated with the active ingredients which had been suspended or emulsified in water. For this purpose, the test plants were either sown directly and grown in the same containers, or they were first grown separately as seedlings and transplanted into the test containers a few days prior to treatment. Depending on the species, the plants were kept at 10-25° C. or 20-35° C. The test period extended over 2 to 4 weeks. During this time, the plants were tended, and their response to the individual treatments was evaluated. Evaluation was carried out using a scale from 0 to 100. 100 means no emergence of the plants, or complete destruction of at least the aerial moieties, and 0 means no damage, or normal course of growth. A good herbicidal activity is given at values of at least 70 and a very good herbicidal activity is given at values of at least 85. [table]

[2] = test system: ABUTH; test: greenhouse post-emergence herbicidal test, ABUTH; format: in vivo, Abutilon theophrasti; conditions: post-emergence method, application rate 1 kg/ha, scale from 0 to 100
From the text: as §1

COc1nonc1NC(=O)c1ccc2c(c1Cl)S(=O)(=O)CCC2(C)C [I″.A-8]
herbicidal activity against ALOMY [1]: very good herbicidal activity (a very good herbicidal activity is given at values of at least 85)

Cc1nonc1NC(=O)c1ccc(Cl)c2ncccc12 [I′.A-113]
herbicidal activity against ABUTH [2]: good herbicidal activity (A good herbicidal activity is given at values of at least 70)

From patent US9096583B2, “Substituted 1,2,5-oxadiazole compounds and their use as herbicides II” (BASF SE, priority 2011, dated 2015)
